# According to patent US8216786B2, “Genetic polymorphisms associated with cardiovascular diseases, methods of detection and uses thereof” (Celera Corporation, priority 2008, dated 2012):
# Tested on: individuals who have previously had an MI
# Experiment: CARE trial: effect of pravastatin vs placebo on coronary events (endpt1, rmi) by SNP genotype subgroup
# Format: in vivo, human
# Experimental: In Tables 21-22, the column labeled “Endpoint” indicates whether the endpoint that was analyzed was the primary endpoint of the CARE study (a composite endpoint of fatal coronary event or nonfatal MI, and identified as “endpt1”) or a composite endpoint of confirmed fatal or nonfatal MI (identified as “rmi”). […] As used herein, the term “benefit” (with respect to a preventive or therapeutic drug treatment) is defined as achieving a reduced risk for a disease that the drug is intended to treat or prevent (e.g., CVD such as CHD, particularly MI, or hypertension) by administering the drug treatment, compared with the risk for the disease in the absence of receiving the drug treatment (or receiving a placebo in lieu of the drug treatment) for the same genotype. […] J. […] (1996) New England Journal of Medicine 335: 1001-1009. […] A well-documented MI was one of the enrollment criteria for entry into the CARE study. Patients were enrolled in the CARE trial from 80 participating study centers. […] For the study of CARE described in this Example and shown in Tables 21-22, two endpoints were investigated: the primary endpoint of CARE (a composite endpoint of fatal coronary event or nonfatal MI, and identified as “endpt1” in the Endpoint column of Tables 21-22) and a composite endpoint of confirmed fatal or nonfatal MI (identified as “rmi” in the Endpoint column of Tables 21-22). […] HR stands for Hazard Ratio, which is a concept similar to Odds Ratio (OR). The HR in event-free survival analysis is the effect of an explanatory variable on the hazard or risk of an event. […] In Table 21, p-interaction values were calculated. An interaction (or effect modification) is formed when a third variable modifies the relation between an exposure and outcome. […] Genotype and drug interaction is present when the effect of statins (incidence rate of disease in statin-treated group, as compared to placebo) differs in patients with different genotypes.
# [1] = endpt1, hCV8851065 rs9277343 HLA-DPA1, GC + CC
# [2] = endpt1, hCV8851065 rs9277343 HLA-DPA1, GG
# [3] = endpt1, hCV8851085 rs1042153 HLA-DPB1, AG + AA
# [4] = endpt1, hCV8851085 rs1042153 HLA-DPB1, GG
# [5] = endpt1, hCV8851095 rs1042335 HLA-DPB1, TC + CC
# [6] = endpt1, hCV8851095 rs1042335 HLA-DPB1, TT
# [7] = endpt1, hCV8895373 rs1503185 PTPRJ, AG + AA
# [8] = endpt1, hCV8895373 rs1503185 PTPRJ, GG
# [9] = endpt1, hCV8901525 rs861539 KLC1, AG + AA
# [10] = endpt1, hCV8901525 rs861539 KLC1, GG
# [11] = endpt1, hCV8921288 rs1060621 GAPDH, AA
# [12] = endpt1, hCV8921288 rs1060621 GAPDH, CA + CC
# [13] = endpt1, hCV9055799 rs3734311 IMPG1, CC
# [14] = endpt1, hCV9055799 rs3734311 IMPG1, CG + GG
# [15] = endpt1, hCV9077561 rs1801274 FCGR2A, AA
# [16] = endpt1, hCV9077561 rs1801274 FCGR2A, GA + GG
# [17] = endpt1, hCV9506149 rs1250259 FN1, AA
# [18] = endpt1, hCV9506149 rs1250259 FN1, TA + TT
# [19] = endpt1, hCV9596963 rs6115 SERPINA5, GA + AA
# [20] = endpt1, hCV9596963 rs6115 SERPINA5, GG
# [21] = endpt1, hCV9604851 rs1805002 CCKBR, AG + AA
# [22] = endpt1, hCV9604851 rs1805002 CCKBR, GG
structure (smiles),measurement,setting,value
CC[C@H](C)C(=O)O[C@H]1C[C@H](O)C=C2C=C[C@H](C)[C@H](CC[C@@H](O)C[C@@H](O)CC(=O)O)[C@H]21 [pravastatin],NONEVENT (Pravastatin arm),"endpt1, hCV8851047 rs45614833 HLA-DPA1, CT + TT",1229
same,EVENTS (Pravastatin arm),[1],120
same,NONEVENT (Pravastatin arm),[1],1198
same,EVENTS (Pravastatin arm),[2],13
same,NONEVENT (Pravastatin arm),[2],90
same,EVENTS (Pravastatin arm),[3],58
same,NONEVENT (Pravastatin arm),[3],491
same,EVENTS (Pravastatin arm),[4],74
same,NONEVENT (Pravastatin arm),[4],798
same,EVENTS (Pravastatin arm),[5],126
same,NONEVENT (Pravastatin arm),[5],1216
same,EVENTS (Pravastatin arm),[6],7
same,NONEVENT (Pravastatin arm),[6],40
same,EVENTS (Pravastatin arm),[7],53
same,NONEVENT (Pravastatin arm),[7],409
same,EVENTS (Pravastatin arm),[8],80
same,NONEVENT (Pravastatin arm),[8],882
same,EVENTS (Pravastatin arm),[9],88
same,NONEVENT (Pravastatin arm),[9],759
same,EVENTS (Pravastatin arm),[10],45
same,NONEVENT (Pravastatin arm),[10],504
same,EVENTS (Pravastatin arm),[11],97
same,NONEVENT (Pravastatin arm),[11],815
same,EVENTS (Pravastatin arm),[12],36
same,NONEVENT (Pravastatin arm),[12],440
same,EVENTS (Pravastatin arm),[13],15
same,NONEVENT (Pravastatin arm),[13],247
same,EVENTS (Pravastatin arm),[14],117
same,NONEVENT (Pravastatin arm),[14],1040
same,EVENTS (Pravastatin arm),[15],36
same,NONEVENT (Pravastatin arm),[15],300
same,EVENTS (Pravastatin arm),[16],96
same,NONEVENT (Pravastatin arm),[16],985
same,EVENTS (Pravastatin arm),"endpt1, hCV9494470, GG",100
same,NONEVENT (Pravastatin arm),"endpt1, hCV9494470, GG",884
same,EVENTS (Pravastatin arm),"endpt1, hCV9494470, TG + TT",33
same,NONEVENT (Pravastatin arm),"endpt1, hCV9494470, TG + TT",407
same,EVENTS (Pravastatin arm),[17],64
same,NONEVENT (Pravastatin arm),[17],678
same,EVENTS (Pravastatin arm),[18],69
same,NONEVENT (Pravastatin arm),[18],611
same,EVENTS (Pravastatin arm),[19],106
same,NONEVENT (Pravastatin arm),[19],1147
same,EVENTS (Pravastatin arm),[20],26
same,NONEVENT (Pravastatin arm),[20],136
same,EVENTS (Pravastatin arm),[21],19
same,NONEVENT (Pravastatin arm),[21],113
same,EVENTS (Pravastatin arm),[22],114
same,NONEVENT (Pravastatin arm),[22],1178
same,EVENTS (Pravastatin arm),"endpt1, hCV25630686 PSMB9, CC",128
same,NONEVENT (Pravastatin arm),"endpt1, hCV25630686 PSMB9, CC",1206
same,EVENTS (Pravastatin arm),"endpt1, hCV25630686 PSMB9, TC + TT",5
